# Measured values published in PubChem BioAssay AID1259411 (Chemical Carcinogenesis Research Information System (CCRIS), 2018).
# The source made the active and inactive calls. No rule for the calls is given here.
# System: rodent carcinogenicity bioassays, tumor incidence
# Test: CCRIS carcinogenicity studies
# Procedure, shortened: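 NCI-built, expert-reviewed records of carcinogenicity and related test outcomes (mutagenicity, tumor promotion/inhibition) compiled from published and report sources, historical span 1985-2011, not updated.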
compound,measurement,setting,value
COc1c(Cl)c(Cl)c([N+](=O)[O-])c(Cl)c1Cl,carcinogen call,"Species: MOUSE, Strain/Sex: B6C3F1/FEMALE, Route: ORAL, Dose: 0, 0.006, 0.012% OF DIET, Dose: 0, 0.006, 0.012% OF DIET",inactive; negative
same,carcinogen call,"Species: MOUSE, Strain/Sex: B6C3F1/MALE, Route: ORAL, Dose: 0, 0.006, 0.012% OF DIET, Dose: 0, 0.006, 0.012% OF DIET",inactive; negative
same,carcinogen call,"Species: RAT, Strain/Sex: F344/FEMALE, Route: ORAL, Dose: 0, 0.006, 0.012% OF DIET, Dose: 0, 0.006, 0.012% OF DIET",inactive; negative
same,carcinogen call,"Species: RAT, Strain/Sex: F344/MALE, Route: ORAL, Dose: 0, 0.006, 0.012% OF DIET, Dose: 0, 0.006, 0.012% OF DIET",inactive; negative
CCC(=O)Oc1ccc2c(c1)CC[C@@H]1[C@@H]2CC[C@]2(C)[C@@H](OC(=O)CC)CC[C@@H]12,carcinogen call,"Species: MOUSE, Route: SUBCUTANEOUS, Tumor Site: Type of Lesion: MAMMARY GLAND",active; positive
C[C@@]12CCC[C@H]1[C@@H]1CCc3cc(O)ccc3[C@H]1CC2,carcinogen call,"Species: HAMSTER, Strain/Sex: SYRIAN/MALE, Route: SUBCUTANEOUS IMPLANT, Dose: 0, 20 MG IN PELLETS IMPLANTED EVERY 2.5 MO FOR 9 MO (STUDY DURATION: 9 MO)",inactive; negative
Cn1c(=O)c2[nH]cnc2n(C)c1=O,carcinogen call,"Species: MOUSE, Strain/Sex: B6C3F1/FEMALE, Route: GAVAGE, Dose: 0, 7.5, 25, 75 MG/KG BW IN CORN OIL 5 D/WK FOR 726 D (STUDY DURATION: 2 YR), Dose: 0, 7.5, 25, 75 MG/KG BW IN CORN OIL 5 D/WK FOR 726 D (STUDY DURATION: 2 YR)",inactive; negative
same,carcinogen call,"Species: MOUSE, Strain/Sex: B6C3F1/MALE, Route: GAVAGE, Dose: 0, 15, 50, 150 MG/KG BW IN CORN OIL 5 D/WK FOR 726 D (STUDY DURATION: 2 YR), Dose: 0, 15, 50, 150 MG/KG BW IN CORN OIL 5 D/WK FOR 726 D (STUDY DURATION: 2 YR)",inactive; negative
same,carcinogen call,"Species: RAT, Strain/Sex: F344/FEMALE, Route: GAVAGE, Dose: 0, 7.5, 25, 75 MG/KG BW IN CORN OIL 5 D/WK FOR 729 D (STUDY DURATION: 2 YR), Dose: 0, 7.5, 25, 75 MG/KG BW IN CORN OIL 5 D/WK FOR 729 D (STUDY DURATION: 2 YR)",inactive; negative
same,carcinogen call,"Species: RAT, Strain/Sex: F344/MALE, Route: GAVAGE, Dose: 0, 7.5, 25, 75 MG/KG BW IN CORN OIL 5 D/WK FOR 729 D (STUDY DURATION: 2 YR), Dose: 0, 7.5, 25, 75 MG/KG BW IN CORN OIL 5 D/WK FOR 729 D (STUDY DURATION: 2 YR)",inactive; negative
CN1C(=O)C(O)N=C(c2ccccc2)c2cc(Cl)ccc21 (stereo unspecified),carcinogen call,"Species: MOUSE, Strain/Sex: CD-1/FEMALE, Route: ORAL, Dose: 0, 10, 80, 160 MG/KG/D IN DIET FOR 18 MO (STUDY DURATION: 18 MO), Dose: 0, 10, 80, 160 MG/KG/D IN DIET FOR 18 MO (STUDY DURATION: 18 MO)",inactive; negative
same,carcinogen call,"Species: MOUSE, Strain/Sex: CD-1/MALE, Route: ORAL, Dose: 0, 10, 80, 160 MG/KG/D IN DIET FOR 18 MO (STUDY DURATION: 18 MO), Dose: 0, 10, 80, 160 MG/KG/D IN DIET FOR 18 MO (STUDY DURATION: 18 MO)",inactive; negative
same,carcinogen call,"Species: RAT, Strain/Sex: STRAIN-CD/FEMALE, Route: ORAL, Dose: 0, 10, 40, 160 MG/KG/D IN DIET FOR 2 YR (STUDY DURATION: 2 YR), Dose: 0, 10, 40, 160 MG/KG/D IN DIET FOR 2 YR (STUDY DURATION: 2 YR)",inactive; negative
same,carcinogen call,"Species: RAT, Strain/Sex: STRAIN-CD/MALE, Route: ORAL, Dose: 0, 10, 40, 160 MG/KG/D IN DIET FOR 2 YR (STUDY DURATION: 2 YR), Dose: 0, 10, 40, 160 MG/KG/D IN DIET FOR 2 YR (STUDY DURATION: 2 YR)",inactive; negative
FC(F)OC(Cl)C(F)(F)F (stereo unspecified),carcinogen call,"Species: MOUSE, Strain/Sex: SWISS/FEMALE, Route: INHALATION, Dose: 0, 0.1, 0.4% IN AIR 4 HR/D 5 D/WK FOR 78 WK (STUDY DURATION: 81 WK), Dose: 0, 0.1, 0.4% IN AIR 4 HR/D 5 D/WK FOR 78 WK (STUDY DURATION: 81 WK)",inactive; negative
same,carcinogen call,"Species: MOUSE, Strain/Sex: SWISS/MALE, Route: INHALATION, Dose: 0, 0.1, 0.4% IN AIR 4 HR/D 5 D/WK FOR 78 WK (STUDY DURATION: 81 WK), Dose: 0, 0.1, 0.4% IN AIR 4 HR/D 5 D/WK FOR 78 WK (STUDY DURATION: 81 WK)",inactive; negative
